Assay results: patent publication US4049795A, “Treatment of hemorrhagic shock” (priority 1974, dated 1977)

Tests used:
[1] = tested on: reticulo-endothelial system; assay: Phagocytic activity of the reticulo-endothelial system, carbon clearance (HALPERN); assay type: in vivo, rabbit; details: FIGS. 3 and 4
Excerpt: That technique is based on the study of the kinetics of the disappearance in the blood of particles of carbon injected into the vein. The kinetics of disappearance follow the equation [formula] in which formula C1 is the concentration of carbon in the blood at time T1 and C2 is the concentration of carbon in the blood at time T2, K being a constant. The constant K, called phagocytic index, represents the phagocytic activity of the cells of the reticule-endothelial system under the experimental conditions. For the tests, the technique and carbon suspension described by […]. Physiol. of Paris, Vol. 50, p. […] The study was done on rabbits of the same stock, male or female, or an average weight of about 2.5 kg, devided into four batches of four animals each. The first batch was used as controls and received, by slow intravenous injection, 10 ml of a 0.8% solution of sodium chloride ten minutes before the injection of 4 mg of carbon per 100 g of animal. […] In all the tests, a total volume of 10 ml was injected with a fairly closely related injection speed (less than five minutes).

glucidic metabolism = assay: Glucidic metabolism under intravenous perfusion in rabbits (lactacidemia, pyruvicemia, glycemia); assay type: in vivo, rabbit; details: 30 and 60 minutes after perfusion
Method: These tests were carried out on rabbits weighing an average of 2.500 kg.
A trachetomy was carried out under local anaesthesia with procaine. […] A saphenous vein and the two femoral arteries were catheterized under local anaesthesia in order to register the blood pressure by a manometer and to take blood samples; a jugular vein was catheterized to the base of the skull to sample cerebral venous blood.
The results obtained were compared with those obtained following a perfusion carried out in the same way with sodium d,l-lactate at a dose of 40 mg/kg/min.
The glycemia was measured by the enzymatic method in the arterial and cerebral venus blood. The samples were taken before the perfusion, at the end of the perfusion, and at 30 minutes and 60 minutes after perfusion.

Rabbit atrium = assay: Isolated rabbit atrium; details: rabbit atrium
Excerpt: The technique used for this study was the same as that described above for the ileum of the rabbit, but replacing the ileum with bled rabbit atrium. The preservation liquid used as LOCKE's liquid.

Rabbit ileum = assay: Isolated rabbit ileum, tonus; details: without dihydroxyacetone
Method: Fragments of the ileum were suspended in a 75 ml isolated organ tank containing Tyrode's solution maintained at 37° C. by a thermostat and oxygenated by bubbling pure oxygen at a constant rate of flow. The movement of the organ were recorded by means of a lever on a cylinder rotating at a known constant speed.

[2] = tested on: free fatty acids in the plasma; assay: Non-esterified fatty acids in the plasma (DOLE); assay type: in vivo, rabbit
Method: Doses of 1 and 2 mg of adrenalin were introduced subcutaneously into rabbits weighing 2.5 to 3.5 kg.
FIGS. 8, 9 and 10 show the variation in the percentage of non-esterified fatty acids in the plasma as a function of the time. […]

hemorrhagic shock = assay: Irreversible hemorrhagic shock (WIGGERS) in dogs; details: irreversible shock
Method: These experiments were carried out with dogs. […] Spontaneous reinjection, by progressive circulatory failure, of a quarter of the mass of blood effused during the second hemmorhage, was chosen as the irreversibility criterion. The following parameters were measured: pH, arterial and venous CO2 pressure (with a radiometertype apparatus), lactacidemia, pyruvicemia and glycemia (by the enzymatic method), and kalemia (with a flame photometer). Samples were taken from the dogs before irreversibility, immediately after, one hour 11/2 hours and 2R hours thereafter. The blood pressure was followed by femoral intubation and recorded with an apparatus providing mean arterial bloodpressure readings.

`CC(O)C(=O)O` (racemic) [sodium lactate, sodium d,l-lactate, reference compound] was tested, and the rate of phagocytosis [1] was “increased”, the “lactacidemia at 30 and 60 minutes after the end of perfusion” value (glucidic metabolism) was “tended to return to its initial values” and the “action on rhythm of atrium” value (Rabbit atrium) was “accelerates the rhythm”.

In the case of `[Cl-].[K+]` [Potassium chloride, reference compound], the “tonus of the fiber, ordinary effect” value (Rabbit ileum) is reported as “increases the tonus of the fiber in a stable manner”.

For `CNCC(O)c1ccc(O)c(O)c1` (stereo not drawn) [adrenalin], the “proportion of non-esterified fatty acids one hour after injection” value ([2]; 1 mg of adrenalin, FIG. 9) was “fell below normal”, the “proportion of non-esterified fatty acids one hour after injection” value ([2]; 2 mg of adrenalin, FIG. 8) was “again increased” and the “average proportion of non-esterified fatty acids about 10 to 15 minutes after injection” value ([2]; 1 or 2 mg of adrenalin, fed rabbits) was “increased”.

In the case of `O=C[C@H](O)[C@@H](O)[C@H](O)[C@H](O)CO` [hypertonic glucose, glucose, reference compound], the “effect on the blood pressure in hemorrhagic shock” value (hemorrhagic shock) is reported as “no effect” and the “effect on the blood pressure in hemorrhagic shock” value (hemorrhagic shock; listed as 30% glucose) is reported as “none”.
